# Source: patent publication US20040146538A1, “Pharmaceutical composition for oral use comprising an active principle liable to undergo a large first intestinal passage effect” (Gattefosse Holding, priority 2001, published 2004)
# System: human intestinal microsomes
# Assay: Stability of simvastatin in human intestinal microsomes (first intestinal passage effect)
# Conditions: 1 mg/ml microsomes, 37° C., 12 μmol
# Description: The test is carried out in vitro using human intestinal microsomes containing:
# 0.09 nmol/mg of cytochromes P450,
# 0.77 nmol/min/mg of cytochromes P450 3 A 4.
# 1 mg/ml of microsomes is then placed in contact:
# with a regenerating system having the following composition:
# followed by equilibration at 37° C. for 3 minutes.
# 100 μl aliquots are mixed with a solution of 400 μl of a 50/50 mixture of ice and acetonitrile at 0, 15, 30, 60, 120 and 180 minutes. Testosterone is tested in parallel as control component.
# The conditions for carrying out the HPLC are as follows:
# The mass spectrometer used is known under the reference PE SCIEX 150.
smiles,measurement,setting,value
"C[C@]12CC[C@H]3[C@@H](CCC4=CC(=O)CC[C@@]43C)[C@@H]1CC[C@@H]2O [TESTOSTERONE, Testosterone]",Percentage remaining,"simvastatin (or testosterone control) remaining, time 0 min",100%
same,Percentage remaining,time 15 min,completely disappeared
same,Percentage remaining,time 180 min,0%
